Laboratory results from patent US20040180880A1, “Piperazine and piperidine derivatives” (priority 2002, published 2004).
Counter-ions that a name gives are not always drawn.

Key:
[1] = tested on: rat embryo ventral mesencephalic (VM) cells; experiment: Neuroprotection assay: NMDA injury of ventral mesencephalic cultures, read by high affinity 3H-dopamine uptake; assay type: cell-based; details: embryonic day 15 Sprague-Dawley rat VM cells, NMDA 100-400 μM for 20 hours, read-out: DAT (VM) IC50
Source text: The neuroprotective activity of the compounds of this invention may be assayed using rat embryo ventral mesencephalic cells in culture which are subsequently exposed to the glutamate receptor agonist NMDA. This assay is described in detail in the example section.
The ventral mesencephalic region was dissected out of embryonic day 15 Sprague-Dawley rat embryos (Harlan), dissociated into single cell suspension by a combination of trypsinization and trituration (Costantini et al., Neurobiol Dis., pp. 97-106 (1998). Dissociated VM cells were plated into poly-L-ornithine-coated 96-well plates at a density of 85,000 cells/well in 100 uL of DMEM supplemented with 18% heat-inactivated horse serum, 0.24% glucose, 2 mM glutamine and 50 u/ml pernicillin/streptomycin and incubated in a 5% CO2 incubator. After one day in culture (DIV1), the medium was replaced with 100 μL of a defined medium (DMEM supplemented with 1×N2 cocktail (Gibco-BRL), 0.12% glucose, 2 mM glutamine, and […] penicillin/streptomycin) containing DMSO or various concentrations of the compounds of this invention. On DIV5, neuroexcitotoxic injury was induced by the addition of various concentrations of the glutamate receptor agonist NMDA (100-400 μM). Cultures were incubated with the neurotoxin for 20 hours and the effects of neurophilin compounds were assessed using high affinity ^3H-dopamine uptake according to a procedure published by Park and Mytilineou [Brain Res., 599, pp. 83-97 (1992)].

For `O=C(C1CCCCN1)N1CCN(C(c2ccc(F)cc2F)c2ccc(F)cc2F)CC1` (stereo not shown) (as salt: hydrochloride) [Compound 9, {4-[Bis-(2,4-difluoro-phenyl)-methyl]-piperazin-1-yl}-piperidin-2-yl-methanone], which melting point is on record?
The melting point was 84 to 85 °C.

For `O=C(C1CCCCN1)N1CCN(C(c2ccc(F)cc2F)c2ccc(F)cc2F)CC1` (stereo not shown) [Compound 9, {4-[Bis-(2,4-difluoro-phenyl)-methyl]-piperazin-1-yl}-piperidin-2-yl-methanone], which IC50 [1] is on record?
Its IC50 is 145 nM.

Which IC50 [1] does the source give for `O=C(C1CCCCN1)N1CCN(C(c2ccc(F)c(F)c2)c2ccc(F)c(F)c2)CC1` (stereo not shown) [Compound 17, (4-(Bis-(3,4-difluoro-phenyl)-methyl)piperazine-1-yl)-piperidin-2-yl-methanone] here?
Its IC50 is 6 nM.

For `O=C(C1CCCCN1)N1CCN(C(c2ccc(F)cc2)c2ccc(F)cc2)CC1` (stereo not shown) [Compound 28, (4-(Bis-(4-fluoro-phenyl)-methyl)piperazine-1-yl)-piperidin-2-yl-methanone dihydrochloride], which IC50 [1] is on record?
Its IC50 is 12 nM.
